Target: T1, estrogen receptor (Homo sapiens, UniProt P03372)
T1 construct: endogenous in cells; host or cells: ECC-1 cells
T1 sequence (P03372 1-595): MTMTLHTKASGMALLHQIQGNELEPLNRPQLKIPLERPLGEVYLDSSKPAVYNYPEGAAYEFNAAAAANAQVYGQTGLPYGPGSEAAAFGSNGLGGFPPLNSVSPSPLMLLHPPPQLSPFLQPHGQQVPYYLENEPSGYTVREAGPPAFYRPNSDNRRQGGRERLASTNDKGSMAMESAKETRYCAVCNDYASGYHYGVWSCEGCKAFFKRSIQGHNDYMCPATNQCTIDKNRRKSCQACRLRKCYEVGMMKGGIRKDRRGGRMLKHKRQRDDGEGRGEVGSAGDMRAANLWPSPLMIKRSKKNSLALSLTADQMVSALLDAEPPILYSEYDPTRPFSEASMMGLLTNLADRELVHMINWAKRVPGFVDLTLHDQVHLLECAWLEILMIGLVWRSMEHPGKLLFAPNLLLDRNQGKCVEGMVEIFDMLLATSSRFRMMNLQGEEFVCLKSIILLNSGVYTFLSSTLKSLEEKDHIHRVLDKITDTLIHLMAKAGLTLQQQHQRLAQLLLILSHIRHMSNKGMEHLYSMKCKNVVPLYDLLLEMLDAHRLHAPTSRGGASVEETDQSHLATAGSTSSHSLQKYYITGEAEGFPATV
Test: AP assay (alkaline phosphatase activity in ECC-1 cells), agonist mode (absence of E2) and antagonist mode (presence of 500 pM E2)
Type: cell-based
Conditions: 3 days, AP activity normalized to 500 pM E2 alone, agonist and antagonist mode combined
Summary of the method: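 Read-out is absorbance at 405 nm from p-nitrophenyl phosphate cleavage (40 min, 42 °C), expressed relative to 500 pM E2 alone. Compounds were applied to ECC-1 cells in hormone-depleted medium for 3 days, either alone (agonist) or alongside 500 pM E2 (antagonist).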

| Structure (SMILES) | Activity (estrogen receptor modulation, e.g., agonism and antagonism) |
| --- | --- |
| CC1CN(Cc2cc3cc([C@@H]4c5[nH]c6ccccc6c5C[C@@H](C)N4CC(F)(F)CO)ccc3[nH]2)C1 [Compound I-46, 2,2-difluoro-3-[(1R,3R)-3-methyl-1-[2-[(3-methylazetidin-1-yl)methyl]-1H-indol-5-yl]-1,3,4,9-tetrahydropyrido[3,4-b]indol-2-yl]propan-1-ol] | +++ (estrogen receptor antagonism (i) with pIC50 greater than 7.5 and at least a 10% reduction in the E2-normalized signal in the AP assay (antagonist mode); and (ii) no more than 10% increase in E2-normalized signal in the AP assay (agonist mode)) |
| C[C@@H]1Cc2c([nH]c3ccccc23)[C@@H](c2cc(F)c3oc(CN4CC(CF)C4)nc3c2)N1CC(C)(C)F [Compound I-79, 7-fluoro-2-[[3-(fluoromethyl)azetidin-1-yl]methyl]-5-[(1R,3R)-2-(2-fluoro-2-methyl-propyl)-3-methyl-1,3,4,9-tetrahydropyrido[3,4-b]indol-1-yl]-1,3-benzoxazole] | + (estrogen receptor agonism having (i) at least 80% increase in the E2-normalized signal in the AP assay (agonist mode) and (ii) no more than 80% reduction in the E2-normalized signal in the AP assay (antagonist mode)) |
| C[C@@H]1Cc2c([nH]c3ccccc23)[C@@H](c2cc3cc(CN4CC(CF)C4)[nH]c3s2)N1CC(C)(C)F [Compound I-63, 5-[[3-(fluoromethyl)azetidin-1-yl]methyl]-2-[(1S,3R)-2-(2-fluoro-2-methyl-propyl)-3-methyl-1,3,4,9-tetrahydropyrido[3,4-b]indol-1-yl]-6H-thieno[2,3-b]pyrrole] | ++ (estrogen receptor antagonism having (i) between 10% and 80% increase in the E2-normalized signal in the AP assay (agonist mode) and (ii) between 10% and 80% reduction in the E2-normalized signal in the AP assay (antagonist mode)) |
| C[C@@H]1Cc2c([nH]c3ccccc23)[C@@H](c2ccc3oc(CN4CC(CF)C4)nc3c2)N1CC(F)(F)CO [Compound I-80, 2,2-difluoro-3-[(1R,3R)-1-[2-[[3-(fluoromethyl)azetidin-1-yl]methyl]-1,3-benzoxazol-5-yl]-3-methyl-1,3,4,9-tetrahydropyrido[3,4-b]indol-2-yl]propan-1-ol] | +++ (estrogen receptor antagonism (i) with pIC50 greater than 7.5 and at least a 10% reduction in the E2-normalized signal in the AP assay (antagonist mode); and (ii) no more than 10% increase in E2-normalized signal in the AP assay (agonist mode)) |
| C[C@@H]1Cc2c([nH]c3ccccc23)[C@@H](c2ccc3[nH]c(CN4CC5(CC(F)C5)C4)cc3c2)N1CC(C)(C)F [Compound I-52, (1R,3R)-1-[2-[(6-fluoro-2-azaspiro[3.3]heptan-2-yl)methyl]-1H-indol-5-yl]-2-(2-fluoro-2-methyl-propyl)-3-methyl-1,3,4,9-tetrahydropyrido[3,4-b]indole] | ++ (estrogen receptor antagonism having (i) between 10% and 80% increase in the E2-normalized signal in the AP assay (agonist mode) and (ii) between 10% and 80% reduction in the E2-normalized signal in the AP assay (antagonist mode)) |
| COCC1CN(Cc2cc3cc([C@@H]4c5[nH]c6ccccc6c5C[C@@H](C)N4CC(C)(C)F)ccc3[nH]2)C1 [Compound I-51, (1R,3R)-2-(2-fluoro-2-methyl-propyl)-1-[2-[[3-(methoxymethyl)azetidin-1-yl]methyl]-1H-indol-5-yl]-3-methyl-1,3,4,9-tetrahydropyrido[3,4-b]indole] | + (estrogen receptor agonism having (i) at least 80% increase in the E2-normalized signal in the AP assay (agonist mode) and (ii) no more than 80% reduction in the E2-normalized signal in the AP assay (antagonist mode)) |
| C[C@@H]1Cc2c([nH]c3ccccc23)[C@@H](c2c[nH]c3cc(CN(C)CCCF)ccc23)N1CC(C)(C)F [Compound I-9, 3-fluoro-N-[[3-[(1R,3R)-2-(2-fluoro-2-methyl-propyl)-3-methyl-1,3,4,9-tetrahydropyrido[3,4-b]indol-1-yl]-1H-indol-6-yl]methyl]-N-methyl-propan-1-amine] | + (estrogen receptor agonism having (i) at least 80% increase in the E2-normalized signal in the AP assay (agonist mode) and (ii) no more than 80% reduction in the E2-normalized signal in the AP assay (antagonist mode)) |
| CCCN(C)Cc1ccc2c([C@@H]3c4[nH]c5ccccc5c4C[C@@H](C)N3CC(C)(C)F)c[nH]c2c1 [Compound I-7, N-[[3-[(1R,3R)-2-(2-fluoro-2-methyl-propyl)-3-methyl-1,3,4,9-tetrahydropyrido[3,4-b]indol-1-yl]-1H-indol-6-yl]methyl]-N-methyl-propan-1-amine] | + (estrogen receptor agonism having (i) at least 80% increase in the E2-normalized signal in the AP assay (agonist mode) and (ii) no more than 80% reduction in the E2-normalized signal in the AP assay (antagonist mode)) |
| C[C@@H]1Cc2c([nH]c3ccccc23)[C@@H](c2n[nH]c3cc(CN4CC(CF)C4)ccc23)N1CC(F)F [Compound I-36, (1S,3R)-2-(2,2-difluoroethyl)-1-(6-((3-(fluoromethyl)azetidin-1-yl)methyl)-1H-indazol-3-yl)-3-methyl-2,3,4,9-tetrahydro-1H-pyrido[3,4-b]indole] | ++ (estrogen receptor antagonism having (i) between 10% and 80% increase in the E2-normalized signal in the AP assay (agonist mode) and (ii) between 10% and 80% reduction in the E2-normalized signal in the AP assay (antagonist mode)) |
| C[C@@H]1Cc2c([nH]c3ccccc23)[C@@H](c2ccc3[nH]c(CN4CC(CC#N)C4)cc3c2)N1CC(C)(C)F [Compound I-98, 2-[1-[[5-[(1R,3R)-2-(2-fluoro-2-methyl-propyl)-3-methyl-1,3,4,9-tetrahydropyrido[3,4-b]indol-1-yl]-1H-indol-2-yl]methyl]azetidin-3-yl]acetonitrile] | ++ (estrogen receptor antagonism having (i) between 10% and 80% increase in the E2-normalized signal in the AP assay (agonist mode) and (ii) between 10% and 80% reduction in the E2-normalized signal in the AP assay (antagonist mode)) |
| CC1CN(Cc2cc3sc([C@@H]4c5[nH]c6ccccc6c5C[C@@H](C)N4CC(C)(C)F)cc3[nH]2)C1 [Compound I-66, 2-[(1S,3R)-2-(2-fluoro-2-methyl-propyl)-3-methyl-1,3,4,9-tetrahydropyrido[3,4-b]indol-1-yl]-5-[(3-methylazetidin-1-yl)methyl]-4H-thieno[3,2-b]pyrrole] | + (estrogen receptor agonism having (i) at least 80% increase in the E2-normalized signal in the AP assay (agonist mode) and (ii) no more than 80% reduction in the E2-normalized signal in the AP assay (antagonist mode)) |
| C[C@@H]1Cc2c([nH]c3ccccc23)[C@@H](c2c[nH]c3cc(CN4CC(CF)C4)ccc23)N1CC(F)(F)CO [Compound I-15, 2,2-difluoro-3-[(1R,3R)-1-[6-[[3-(fluoromethyl)azetidin-1-yl]methyl]-1H-indol-3-yl]-3-methyl-1,3,4,9-tetrahydropyrido[3,4-b]indol-2-yl]propan-1-ol] | ++ (estrogen receptor antagonism having (i) between 10% and 80% increase in the E2-normalized signal in the AP assay (agonist mode) and (ii) between 10% and 80% reduction in the E2-normalized signal in the AP assay (antagonist mode)) |
| CC1CN(Cc2ccc3c([C@@H]4c5[nH]c6ccccc6c5C[C@@H](C)N4CC(C)(C)F)c[nH]c3c2)C1 [Compound I-6, (1R,3R)-2-(2-fluoro-2-methyl-propyl)-3-methyl-1-[6-[(3-methylazetidin-1-yl)methyl]-1H-indol-3-yl]-1,3,4,9-tetrahydropyrido[3,4-b]indole] | ++ (estrogen receptor antagonism having (i) between 10% and 80% increase in the E2-normalized signal in the AP assay (agonist mode) and (ii) between 10% and 80% reduction in the E2-normalized signal in the AP assay (antagonist mode)) |
| C[C@@H]1Cc2c([nH]c3ccccc23)[C@@H](c2n[nH]c3cc(C(=O)O)ccc23)N1CC(C)(C)F [Compound I-4, 3-[(1S,3R)-2-(2-fluoro-2-methyl-propyl)-3-methyl-1,3,4,9-tetrahydropyrido[3,4-b]indol-1-yl]-1H-indazole-6-carboxylic acid] | + (estrogen receptor agonism having (i) at least 80% increase in the E2-normalized signal in the AP assay (agonist mode) and (ii) no more than 80% reduction in the E2-normalized signal in the AP assay (antagonist mode)) |
